Columns and labels:
[1] = test system: HepG 2.2.15 (2.2.15) cells; assay: IC-90 values taken as basis for the combostat serial dilutions; assay type: cell-based; settings: Hepatitis B virus, HepG2.2.15; T. Block and G. Jacob, unpublished observation
Method: The anti-hepatitis B virus effect of […] (3TC) alone and in combination with N-nonyl-DNJ was determined according to Korba ((1996) Antiviral Research 29(1):49-51), using the "combostat" strategy (Comstat Program, Combostat Corp., Duluth, MN). The combostat method involves serially diluting the IC-90 of each compound. The IC-90 of N-nonyl-DNJ has been determined to be between 4 and 10 µg/ml (T. Block and G. Jacob, unpublished observation). The accepted IC-90 for 3TC in HepG 2.2.15 (2.2.15) cells is 300nM to 500nM (Doong et al. (1991) Proc. Natl. Acad. Sci. USA 88:8495-8499).

[2] = test system: woodchuck hepatitis virus (WHV); assay: Woodchuck model: total HBV DNA by quantitative PCR; assay type: in vivo; settings: 0, 12.5, 25, 50, 100 mg/kg/day BID oral, 4 weeks
Method: (§1) Therefore, five groups of four animals each (all groups had both sexes, all but the control had two of each sex) were assigned to 0, 12.5, 25, 50, and 100 mg/kg/day with BID oral dosing. These were lab-reared wild animals. All animals were infected with woodchuck hepatitis virus (WHV) as neonates, and had been tested positive on serological tests for WHV surface antigen. Blood samples were drawn one week prior to dosing (-1 week), immediately before dosing (0 weeks), weekly during dosing (1, 2, 3, and 4 weeks), and after the end of dosing (5, 6, 8, and 10 weeks).
(§2) There are two measures of drug efficacy: reduction in total HBV DNA (measured by quantitative PCR), and reduction in HBV DNA from capsids with intact surface glycoproteins, which is the active form of the virus (measured by an ELISA-like immune precipitation assay followed by quantitative PCR).
The total HBV DNA levels were essentially constant over time within each animal (data not shown). There was a faint hint of a dose-response relationship with decreasing levels of virus with increasing levels of drug, except that three animals at the highest dose had very high virus levels. It is not possible to conclude that there is any relationship between dose of N-nonyl-DNJ and total HBV DNA. […]

[3] = test system: woodchuck hepatitis virus (WHV); assay: Woodchuck model: immune precipitated HBV DNA (IPDNA), immune precipitation followed by quantitative PCR; assay type: in vivo
Method: as §1, §2
Substantial variation existed in the IPDNA assay, both between assay runs and within assay runs (data not shown). Even so, it was possible to observe and model a slope over weeks 0-4 which is generally increasing for low dose animals and decreasing for high dose animals.
Before models are fitted to the data, a log transform was applied because: 1) the variation in IPDNA increases with increasing IPDNA values; the log transformation gives values with a nearly constant variation, and 2) it is expected that drug effects will appear as a constant multiplier of the IPDNA level. Because there are zero values of IPDNA, a small value (about 1/2 of the smallest non-zero value) was added to all values before the log transform.
Two approaches were used to model the changes in slope to week with dose of N-nonyl-DNJ: a linear modeling approach and a nonlinear model. Both approaches assume that the (linear) rate of change of the Log(IPDNA) measure over the dosing period is the "right" measure to reflect the effect of the drug on the virus. Both approaches are fit in stages, and the first stage is common to both approaches. First, a simple straight line regression model is fit using weeks 0-4 to predict log(IPDNA + 10) separately for each animal by run combination. In the second stage, the response variable is the slope fitted in the first stage.
For the linear approach, a model is fit with slope to week as the response where run is considered a block, dose has a significant effect (almost all of this effect is due to a slope to dose), and the relevant error for testing the effect of dose is the variation among animals treated alike (after the adjustment for the runs as blocks). This is similar to using the calibration data within each run to first adjust each run's data to a common virus DNA concentration; the difference is that here the data from the woodchucks are used for the run adjustment rather than only the calibration data.
For the nonlinear approach, a four parameter logistic model is fit with the slope to week as the response and the dose as the predictor. Again, run is considered a block, but because no run has all weeks, it is not possible to fully reflect the blocking in the nonlinear approach. […] The average maximum slope observed was 2.71 additional Log(IPDNA µg/mL)/week, or an increase of about […], the average minimum slope observed with N-nonyl-DNJ is 0.31 fewer Log (IPDNA µg/mL)/week), or about a decrease of about […]. The slopes, the fitted model, the parameter estimates from the model, and the approximate standard errors for these parameters are all shown in Figure 3. […] Whether in woodchucks or humans, the effective dose of both the N-alkyl-DNJ and nucleoside or nucleotide antiviral agent administered in combination therewith can be administered in two equal daily subdoses (i.e., B.I.D.).

[4] = test system: Hepatitis B Virus; assay: HBV secretion by chronically HBV secreting HepG2.2.15 cells (preS1 immunoprecipitation of secreted virions, PCR of viral DNA); assay type: cell-based; settings: 3 days, control = 100%
Method: The anti-hepatitis B virus activity and effect on cell viability of a number of different N-substituted-1,5-dideoxy-1,5-imino-D-glucitol compounds were assessed using an in vitro assay employing chronically hepatitis B virus secreting HepG2.2.15 cells. The method employed was essentially that described in Block et al. (1994) Proc. Natl. Acad. Sci. USA 91:2235-2239.

[5] = test system: HepG2.2.15 cells; assay type: cell-based
[6] = concentration [200] (unit not given)
[7] = concentration [1000] (unit not given)

Structure (SMILES)	IC90 [1]	effect on total HBV DNA measurements [2]	EC50 ([3]; four parameter logistic model, slope of Log(IPDNA + 10) to week vs dose)	average maximum slope observed ([3]; weeks 0-4 of dosing)	average minimum slope observed ([3]; weeks 0-4 of dosing)	decrease of IPDNA at average minimum slope ([3]; weeks 0-4 of dosing)	increase of IPDNA at average maximum slope ([3]; weeks 0-4 of dosing)	approximate effective monotherapy dose ([3]; woodchucks, oral)	Relative amount of HBV secreted, as a % of control [4, 6]	Relative amount of HBV secreted, as a % of control [4, 7]	appearance of cells by gross microscopic examination [5]
CCCCCCCCCN1C[C@H](O)[C@@H](O)[C@H](O)[C@H]1CO [Compound 1, N-(n-nonyl)-1,5-dideoxy-1,5-imino-D-glucitol]	4 to 10 µg/mL	no effect	7.88 mg/kg/BID dose	2.71 additional Log(IPDNA µg/mL)/week	0.31 fewer Log (IPDNA µg/mL)/week	about 25 %/week	about 150 %/week	about 16 mg/kg/day	–	–	–
CCC(CC)CN1C[C@H](O)[C@@H](O)[C@H](O)[C@H]1CO [Compound 3, N-(2-ethylbutyl)-1,5-dideoxy-1,5-imino-D-glucitol]	–	–	–	–	–	–	–	–	5.0 +/-30 (n = 3) %	5.0 +/-20(n = 3) %	unremarkable (healthy)
CCCCN1C[C@H](O)[C@@H](O)[C@H](O)[C@H]1CO [NBDNJ, N-(n-butyl-)-1,5-dideoxy-1,5-imino-D-glucitol, reference compound]	–	–	–	–	–	–	–	–	37.0 +/-13(n = 15) %	3.2 +/-5(n = 15) %	–
